Source: ChEMBL document CHEMBL5325424, “Structural design, synthesis, and anti-Trypanosomatidae profile of new Pyridyl-thiazolidinones” (Eur J Med Chem, 2023)
pIC50: −log10 of the molar value. Activity calls are given as the source filed them. The calls are words filed in the database; no cut-off is given here.

Experiments:
[1] = Cytotoxicity against mouse RAW264.7 cells incubated for 48 hrs by MTT assay; type: toxicity, cell-based
Trypanosoma cruzi [2] = test: Antitrypanosomal activity against Trypanosoma cruzi Y trypomastigotes infected in African green monkey Vero cells assessed as parasite growth inhibition incubated for 24 hrs by hemocytometry; type: functional, organism-based
[3] = Selectivity index, ratio of CC50 for mouse RAW264.7 cells to IC50 for Trypanosoma cruzi Y trypomastigotes infected in African green monkey Vero cells; type: toxicity; conditions: read-out: Ratio CC50/IC50
Trypanosoma cruzi [4] = test: Antitrypanosomal activity against Trypanosoma cruzi Tulahuen amastigotes infected in mouse L929 cells assessed as parasite growth inhibition measured after 7 days by CPRG/Nonidet based assay; type: functional, organism-based; conditions: L929, 168 h
[5] = Selectivity index, ratio of CC50 for mouse RAW264.7 cells to IC50 for Trypanosoma cruzi Tulahuen amastigotes infected in mouse L929 cells; type: toxicity, cell-based; conditions: read-out: Ratio CC50/IC50
Trypanosoma cruzi [6] = test: Induction of morphological changes in Trypanosoma cruzi trypomastigotes assessed as appearance of contorted body at IC50 incubated for 24 hrs by SEM analysis; type: functional, organism-based
Trypanosoma cruzi [7] = test: Induction of morphological changes in Trypanosoma cruzi trypomastigotes assessed as appearance of rounded body at 2 times IC50 incubated for 24 hrs by SEM analysis; type: functional, organism-based
Trypanosoma cruzi [8] = test: Induction of morphological changes in Trypanosoma cruzi trypomastigotes membrane assessed as appearance of membrane rupture at 2 times IC50 incubated for 24 hrs by SEM analysis
Trypanosoma cruzi [9] = test: Induction of morphological changes in Trypanosoma cruzi trypomastigotes assessed as appearance of shortened flagellum at IC50 incubated for 24 hrs by SEM analysis; type: functional, organism-based
Trypanosoma cruzi [10] = test: Induction of morphological changes in Trypanosoma cruzi trypomastigotes assessed as appearance of thinned flagellum at 2 times IC50 incubated for 24 hrs by SEM analysis; type: functional, organism-based
Trypanosoma cruzi [11] = test: Induction of morphological changes in Trypanosoma cruzi trypomastigotes assessed as appearance of loss of cytoplasmic content at 2 times IC50 incubated for 24 hrs by SEM analysis; type: functional, organism-based
Trypanosoma cruzi [12] = test: Induction of apoptosis in Trypanosoma cruzi trypomastigotes assessed as early apoptotic cells at IC50 incubated for 24 hrs by annexin V-FITC/PI staining based flow cytometry (reference value: 0.10 %); type: functional
Trypanosoma cruzi [13] = test: Induction of apoptosis in Trypanosoma cruzi trypomastigotes assessed as late apoptotic cells at IC50 incubated for 24 hrs by annexin V-FITC/PI staining based flow cytometry (reference value: 2.58 %); type: functional
Trypanosoma cruzi [14] = test: Induction of apoptosis in Trypanosoma cruzi trypomastigotes assessed as necrotic cells at IC50 incubated for 24 hrs by annexin V-FITC/PI staining based flow cytometry (reference value: 4.05 %); type: functional
Trypanosoma cruzi [15] = test: Induction of apoptosis in Trypanosoma cruzi trypomastigotes assessed as early apoptotic cells at 2 times IC50 incubated for 24 hrs by annexin V-FITC/PI staining based flow cytometry (reference value: 0.10 %); type: functional
Trypanosoma cruzi [16] = test: Induction of apoptosis in Trypanosoma cruzi trypomastigotes assessed as late apoptotic cells at 2 times IC50 incubated for 24 hrs by annexin V-FITC/PI staining based flow cytometry (reference value: 2.58 %); type: functional
Trypanosoma cruzi [17] = test: Induction of apoptosis in Trypanosoma cruzi trypomastigotes assessed as necrotic cells at 2 times IC50 incubated for 24 hrs by annexin V-FITC/PI staining based flow cytometry (reference value: 4.05 %); type: functional
Splenocyte [18] = test: Immunomodulatory activity in mouse splenocytes assessed as effect on IFN-gamma level at 10 ug/ml incubated for 24 to 96 hrs by flow cytometry; type: functional, cell-based; conditions: dose 10.0 µg/ml, time 24-96 hrs
Splenocyte [19] = test: Immunomodulatory activity in mouse splenocytes assessed as reduction in IL-6 level at 10 ug/ml incubated for 24 hrs by flow cytometry; type: functional, cell-based; conditions: dose 10.0 µg/ml
Splenocyte [20] = test: Immunomodulatory activity in mouse splenocytes assessed as reduction in IL-6 level at 10 ug/ml incubated for 96 hrs by flow cytometry; type: functional, cell-based; conditions: dose 10.0 µg/ml
Leishmania amazonensis [21] = test: Antileishmanial activity against Leishmania amazonensis WHOM/00 LTB 0016 promastigotes assessed as parasite growth inhibition incubated for 72 hrs; type: functional, organism-based; conditions: WHOM/00 LTB 0016, 72 h
[22] = Selectivity index, ratio of CC50 for mouse RAW264.7 cells to IC50 for Leishmania amazonensis WHOM/00 LTB 0016 promastigotes; type: toxicity; conditions: read-out: Ratio CC50/IC50
Leishmania amazonensis [23] = test: Antileishmanial activity against Leishmania amazonensis WHOM/00 LTB 0016 amastigotes infected in mouse RAW264.7 cells assessed as parasite growth inhibition incubated for 24 hrs by panoptic staining based assay; type: functional, organism-based; conditions: WHOM/00 LTB 0016, RAW264.7, 24 h
[24] = Selectivity index, ratio of CC50 for mouse RAW264.7 cells to IC50 for Leishmania amazonensis WHOM/00 LTB 0016 amastigotes infected in mouse RAW264.7 cells; type: toxicity, cell-based; conditions: read-out: Ratio CC50/IC50
Trypanosoma cruzi [25] = test: Antitrypanosomal activity against Trypanosoma cruzi Y trypomastigotes assessed as parasite growth inhibition incubated for 24 hrs by Neubauer chamber based analysis; type: functional, organism-based
[26] = Cytotoxicity in BALB/c mouse splenocytes incubated for 24 hrs by [3H]-thymidine based liquid scintillation counter analysis; type: toxicity, cell-based, Splenocyte
Splenocyte [27] = test: Immunomodulatory activity in mouse splenocytes assessed as reduction in IL-10 level at 10 ug/ml incubated for 24 hrs by flow cytometry; type: functional, cell-based; conditions: dose 10.0 µg/ml
Splenocyte [28] = test: Immunomodulatory activity in mouse splenocytes assessed as increase in IL-6 level at 10 ug/ml incubated for 24 hrs by flow cytometry; type: functional, cell-based; conditions: dose 10.0 µg/ml
Splenocyte [29] = test: Immunomodulatory activity in mouse splenocytes assessed as increase in IL-6 level at 10 ug/ml incubated for 48 to 72 hrs by flow cytometry; type: functional, cell-based; conditions: dose 10.0 µg/ml, time 48-72 hrs
Trypanosoma cruzi [30] = test: Induction of morphological changes in Trypanosoma cruzi trypomastigotes assessed as appearance of loss of cytoplasmic content at IC50 incubated for 24 hrs by SEM analysis; type: functional, organism-based

Question: Which results are given for `S=C(N/N=C/c1ccccn1)Nc1ccccc1`?
Answer: CC50 at 48 h [1]: 6.09 µM; pIC50 (Trypanosoma cruzi [2]): 5.22; selectivity ratio [3]: 1; pIC50 (Trypanosoma cruzi [4]): 6.72; selectivity ratio [5]: 31.2; Activity (Trypanosoma cruzi [6]): Active; Activity (Trypanosoma cruzi [7]): Active; Activity (Trypanosoma cruzi [8]): Active; Activity (Trypanosoma cruzi [9]): Active; Activity (Trypanosoma cruzi [10]): Active; Activity (Trypanosoma cruzi [11]): Active; Activity (Trypanosoma cruzi [12]): 0.07%; Activity (Trypanosoma cruzi [13]): 1.43%; Activity (Trypanosoma cruzi [14]): 6.13%; Activity (Trypanosoma cruzi [15]): 10.3%; Activity (Trypanosoma cruzi [16]): 2.9%; Activity (Trypanosoma cruzi [17]): 6.42%; Activity (Splenocyte [18]): inactive; Activity (Splenocyte [19]): Active; Activity (Splenocyte [20]): Active; pIC50 (Leishmania amazonensis [21]): 4.93; selectivity ratio [22]: 0.51; pIC50 (Leishmania amazonensis [23]): 4.44; selectivity ratio [24]: 0.16

Question: What does the source list for `C/C(=N\N=C1/NC(=O)C(c2ccccc2)S1)c1cc(Cl)ccc1Cl` (stereo not given)?
Answer: pIC50 (Trypanosoma cruzi [25]): 6.08; CC50 at 24 h [26]: ≥ 100 µM

Question: For `CC(C)C1S/C(=N/N=C/c2ccccn2)N(c2ccccc2)C1=O` (stereo not given), which CC50 at 48 h [1] is on record?
Answer: 47.4 µM

Question: And the pIC50 (Trypanosoma cruzi [2])?
Answer: 6.00

Question: And the selectivity ratio [3]?
Answer: 46.4

Question: What about the pIC50 (Trypanosoma cruzi [4]) of the same compound?
Answer: 6.22

Question: What about the selectivity ratio [5] of the same compound?
Answer: 79

Question: And the Activity (Trypanosoma cruzi [6])?
Answer: Active

Question: And the Activity (Trypanosoma cruzi [7])?
Answer: Active

Question: And the Activity (Trypanosoma cruzi [8])?
Answer: Active

Question: And the Activity (Trypanosoma cruzi [9])?
Answer: Active

Question: What about the Activity (Trypanosoma cruzi [10]) of the same compound?
Answer: Active

Question: What about the Activity (Trypanosoma cruzi [11]) of the same compound?
Answer: Active

Question: What about the Activity (Trypanosoma cruzi [12]) of the same compound?
Answer: 0.97%

Question: And the Activity (Trypanosoma cruzi [13])?
Answer: 3.83%

Question: What about the Activity (Trypanosoma cruzi [14]) of the same compound?
Answer: 6.38%

Question: What about the Activity (Trypanosoma cruzi [15]) of the same compound?
Answer: 0.13%

Question: What about the Activity (Trypanosoma cruzi [16]) of the same compound?
Answer: 4.02%

Question: What about the Activity (Trypanosoma cruzi [17]) of the same compound?
Answer: 30.19%

Question: And the Activity (Splenocyte [18])?
Answer: inactive

Question: What about the Activity (Splenocyte [27]) of the same compound?
Answer: Active

Question: And the Activity (Splenocyte [20])?
Answer: Active

Question: And the pIC50 (Leishmania amazonensis [21])?
Answer: 3.82

Question: What about the selectivity ratio [22] of the same compound?
Answer: 0.3

Question: What about the pIC50 (Leishmania amazonensis [23]) of the same compound?
Answer: 4.78

Question: And the selectivity ratio [24]?
Answer: 2.82

Question: For `CC1(C)S/C(=N/N=C/c2ccccn2)N(c2ccccc2)C1=O`, which CC50 at 48 h [1] is on record?
Answer: 146 µM

Question: What about the pIC50 (Trypanosoma cruzi [2]) of the same compound?
Answer: 6.05

Question: And the selectivity ratio [3]?
Answer: 162

Question: And the pIC50 (Trypanosoma cruzi [4])?
Answer: 6.19

Question: What about the selectivity ratio [5] of the same compound?
Answer: 228

Question: And the Activity (Trypanosoma cruzi [6])?
Answer: Active

Question: And the Activity (Trypanosoma cruzi [7])?
Answer: Active

Question: What about the Activity (Trypanosoma cruzi [8]) of the same compound?
Answer: Active

Question: And the Activity (Trypanosoma cruzi [9])?
Answer: Active

Question: What about the Activity (Trypanosoma cruzi [10]) of the same compound?
Answer: Active

Question: And the Activity (Trypanosoma cruzi [11])?
Answer: Active

Question: What about the Activity (Trypanosoma cruzi [12]) of the same compound?
Answer: 0.18%

Question: And the Activity (Trypanosoma cruzi [13])?
Answer: 3.66%

Question: What about the Activity (Trypanosoma cruzi [14]) of the same compound?
Answer: 21.53%

Question: And the Activity (Trypanosoma cruzi [15])?
Answer: 0.33%

Question: What about the Activity (Trypanosoma cruzi [16]) of the same compound?
Answer: 4.4%

Question: And the Activity (Trypanosoma cruzi [17])?
Answer: 21.27%

Question: And the Activity (Splenocyte [18])?
Answer: inactive

Question: And the Activity (Splenocyte [27])?
Answer: Active

Question: What about the Activity (Splenocyte [28]) of the same compound?
Answer: Active

Question: What about the Activity (Splenocyte [29]) of the same compound?
Answer: Active

Question: And the pIC50 (Leishmania amazonensis [21])?
Answer: 4.37

Question: What about the selectivity ratio [22] of the same compound?
Answer: 3.5

Question: What about the pIC50 (Leishmania amazonensis [23]) of the same compound?
Answer: 5.02

Question: And the selectivity ratio [24]?
Answer: 15.2

Question: Which CC50 at 48 h [1] does the source give for `O=C(Cn1ccnc1[N+](=O)[O-])NCc1ccccc1` [BENZNIDAZOLE] here?
Answer: 124 µM

Question: What about the selectivity ratio [3] of the same compound?
Answer: 8.5

Question: What about the pIC50 (Trypanosoma cruzi [4]) of the same compound?
Answer: 5.20

Question: And the selectivity ratio [5]?
Answer: 19.6

Question: What about the Activity (Trypanosoma cruzi [6]) of the same compound?
Answer: Active

Question: What about the Activity (Trypanosoma cruzi [30]) of the same compound?
Answer: Active

Question: What about the Activity (Trypanosoma cruzi [7]) of the same compound?
Answer: Active

Question: What about the Activity (Trypanosoma cruzi [8]) of the same compound?
Answer: Active

Question: And the Activity (Trypanosoma cruzi [12])?
Answer: 0.88%

Question: What about the Activity (Trypanosoma cruzi [13]) of the same compound?
Answer: 8.37%

Question: And the Activity (Trypanosoma cruzi [14])?
Answer: 11.69%

Question: What about the Activity (Trypanosoma cruzi [15]) of the same compound?
Answer: 1.18%

Question: What about the Activity (Trypanosoma cruzi [16]) of the same compound?
Answer: 22.44%

Question: And the Activity (Trypanosoma cruzi [17])?
Answer: 12.44%

Question: What about the Activity (Splenocyte [19]) of the same compound?
Answer: Active
